The source of these data is patent US11667645B2, “Granzyme B directed imaging and therapy” (CytoSite Biopharma Inc., priority 2018, dated 2023).

Where only a bound is given, the exact number is not on record here.

The target of the experiment is Granzyme B (human lymphocytes) (Homo sapiens (Human), UniProt P10144). The experiment in a line: human Granzyme B biochemical assay. The conditions noted are these: Granzyme B (human lymphocytes) 5 nM, substrate Ac-IETD-AFC 200 μM, Cpd incubation with enzyme 30 mins, 22° C., read time 60 mins; read-out: IC50. The procedure, abridged: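 Enzyme (10 nM working stock, assay buffer with 0.1% BSA) pre-incubated with compound for 30 min at 22 °C, then Ac-IETD-AFC (800 µM working stock) added for 60 min at 22 °C in the dark. Fluorescence read at Ex 400/Em 505 nm; 8-point 3.16-fold series (40 µM top working stock); IC50 from % inhibition versus standard-inhibitor and DMSO controls.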
Granzyme B (human lymphocytes), sequence (P10144 21-247): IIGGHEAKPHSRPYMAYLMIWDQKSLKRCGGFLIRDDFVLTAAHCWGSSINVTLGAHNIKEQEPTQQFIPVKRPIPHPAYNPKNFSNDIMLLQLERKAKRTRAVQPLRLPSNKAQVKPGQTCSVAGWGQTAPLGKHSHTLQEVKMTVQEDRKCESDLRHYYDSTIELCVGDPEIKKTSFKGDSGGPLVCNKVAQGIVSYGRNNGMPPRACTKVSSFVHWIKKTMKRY

For the compound `CC[C@H](C)[C@H](NC(=O)COCCF)C(=O)N[C@H]1CCc2cccc3c2N(C1=O)[C@H](C(=O)NCc1cc(Cl)cc(Cl)c1)C3` [Compound C133, (2S,5S)-5-{(2S,3S)-2-[2-(2-Fluoro-ethoxy)-acetylamino]-3-methyl-pentanoylamino}-4-oxo-1,2,4,5,6,7-hexahydro-azepino[3,2,1-hi]indole-2-carboxylic acid 3,5-dichloro-benzylamide], the IC50 is greater than 5 µM.

As for `CC(=O)N[C@@H](Cc1ccc(O)cc1)C(=O)N[C@H]1CCc2cccc3c2N(C1=O)[C@H](C(=O)NCc1c[nH]nn1)C3` [Compound C032, (2S,5S)-5-[(S)-2-Acetylamino-3-(4-hydroxy-phenyl)-propionylamino]-4-oxo-1,2,4,5,6,7-hexahydro-azepino[3,2,1-hi]indole-2-carboxylic acid(1H-[1,2,3]triazol-4-ylmethyl)amide], the IC50 fell in the range of 1 to 5 µM.

For `O=C(Cc1ccccc1)N[C@@H](Cc1ccc(F)cc1)C(=O)N[C@H]1CCc2cccc3c2N(C1=O)[C@H](C(=O)NCc1c[nH]nn1)C3` [Compound C022, (2S,5S)-5-[(S)-3-(4-Fluoro-phenyl)-2-phenylacetylamino-propionylamino]-4-oxo-1,2,4,5,6,7-hexahydro-azepino[3,2,1-hi]indole-2-carboxylic acid (1H-[1,2,3]triazol-4-ylmethyl)-amide], the IC50 is greater than 5 µM.

For `CC[C@H](C)[C@H](NC(=O)COCCF)C(=O)N[C@H]1CCc2cccc3c2N(C1=O)[C@H](C(=O)NCB(O)O)C3` [Compound C170, {[((2S,5S)-5-{(2S,3S)-2-[2-(2-Fluoro-ethoxy)-acetylamino]-3-methyl-pentanoylamino}-4-oxo-1,2,4,5,6,7-hexahydro-azepino[3,2,1-hi]indole-2-carbonyl)-amino]-methyl}-boronic acid], the IC50 was 0.301 to 1 µM.

For `CC[C@H](C)[C@H](NC(=O)COCCF)C(=O)N[C@H]1CCc2cccc3c2N(C1=O)[C@H](C(=O)NCc1cc(O)n[nH]1)C3` [Compound C166, (2S,5S)-5-{(2S,3S)-2-[2-(2-Fluoro-ethoxy)-acetylamino]-3-methyl-pentanoylamino}-4-oxo-1,2,4,5,6,7-hexahydro-azepino[3,2,1-hi]indole-2-carboxylic acid (5-hydroxy-2H-pyrazol-3-ylmethyl)-amide], the IC50 was in the range of 1 to 5 µM.

`CC[C@H](C)[C@H](NC(=O)COCCF)C(=O)N[C@H]1CCc2cccc3c2N(C1=O)[C@H](C(=O)NCc1cccc(C)c1)C3` [Compound C128, (2S,5S)-5-{(2S,3S)-2-[2-(2-Fluoro-ethoxy)-acetylamino]-3-methyl-pentanoylamino}-4-oxo-1,2,4,5,6,7-hexahydro-azepino[3,2,1-hi]indole-2-carboxylic acid 3-methyl-benzylamide]: the IC50 is greater than 5 µM.

With `CCC(CC)[C@H](NC(=O)Cc1csc2ccccc12)C(=O)N[C@H]1CCc2cccc3c2N(C1=O)[C@H](C(=O)NCc1c[nH]nn1)C3` [Compound C072, (2S,5S)-5-[(S)-2-(2-Benzo[b]thiophen-3-yl-acetylamino)-3-ethyl-pentanoylamino]-4-oxo-1,2,4,5,6,7-hexahydro-azepino[3,2,1-hi]indole-2-carboxylic acid (1H-[1,2,3]triazol-4-ylmethyl)-amide], the IC50 was 0.301 to 1 µM.

For `CCC(C)[C@H](NC(=O)COCCF)C(=O)N[C@H]1CCc2cccc3c2N(C1=O)[C@H](C(=O)NCc1ccoc1)C3` (stereo in doubt) [Compound C108, (2S,5S)-5-{(2S,3R)-2-[2-(2-Fluoro-ethoxy)-acetylamino]-3-methyl-pentanoylamino}-4-oxo-1,2,4,5,6,7-hexahydro-azepino[3,2,1-hi]indole-2-carboxylic acid (furan-3-ylmethyl)-amide], the IC50 is greater than 5 µM.

`CC(=O)N[C@@H](CO)C(=O)N[C@H]1CCc2cccc3c2N(C1=O)[C@H](C(=O)NCc1c[nH]nn1)C3` [Compound C029, (2S,5S)-5-((S)-2-Acetylamino-3-hydroxy-propionylamino)-4-oxo-1,2,4,5,6,7-hexahydro-azepino[3,2,1-hi]indole-2-carboxylic acid (1H-[1,2,3]triazol-4-ylmethyl)-amide]: the IC50 is greater than 5 µM.

A word on the IC50: it is the concentration at which inhibition is half-maximal.
